The numbers were not newly measured in patent US20040265231A1, “Use of antioxidants to mitigate radioimmunotherapy-induced radiation toxicity” (priority 1999, published 2004), which cites them from elsewhere.

For data set [1] the following is noted: for radioprotective effect (frequency of micronuclei and chromosomal aberration post-radiation): murine study, gamma-ray.

As to `O=C1O[C@H]([C@@H](O)CO)C(O)=C1O` [vitamin C, L-ascorbic acid], the “radioprotective effect (frequency of micronuclei and chromosomal aberration post-radiation)” value in data set [1] is on record as “exhibited radioprotective effects”. In addition, the “radioprotective effect against internalized 131I and 125I” value (dietary and injected) was “exhibited radioprotective effects”. Further, the “radioprotective effect against 210Po (alpha emission)” value (in vivo) is recorded as “not against alpha emission from ^210Po”.

With vitamin A, for the setting “in vivo”, the “radioprotection against tissue incorporated I5I” value was “effective radioprotector” and the “radioprotective effect against 210Po (alpha emission)” value is “not against ^210Po”.

Take vitamin E: the “radioprotective effect (frequency of micronuclei and chromosomal aberration post-radiation)” value in data set [1] is “exhibited radioprotective effects”. Further, the “radioprotective effect of vitamin alone” value in data set [1] (rats and mice) is “ineffective”.
